Several values for one entry are separate records, joined by “and”; a condition that tells them apart may be missing. Equal values may be shown once.
Tests used:
[1] = test system: nitric oxide in cell-free media from S91 cells; test: Nitric oxide in cell-free media from S91 cells (Greiss reagent); format: cell-based, mouse; conditions: 4 days
Method: In a related experiment, nitric oxide was measured in cell-free media from S91 cells following treatment with a range of concentrations of 2,3-cis/exo-pinanediol or 5-norbornene-2,2-dimethanol for 4 days. In biological fluids, nitric oxide is converted into nitrite and nitrate with seconds of production. Therefore, nitric oxide is measured by first converting nitrate to nitrite using nitrate reductase, followed by addition of Greiss reagent to detect nitrite as optical density at 550 nm (Moshage, et al., 1995, Clin. Chem. 41:892-896; Schmidt, et al., 1995, Biochemica 2:22)). […] Moreover, the relative melanogenic potency of 2,3-cis/exo-pinanediol and 5-norbornene-2,2-dimethanol shown in FIG. 5 paralleled the relative potency of these compounds with regards to induction of nitric oxide (Table 17). […] It follows that measurement of induction of nitric oxide, cGMP or PKG may provide biochemically relevant screening assays for compounds that may be melanogenic. Thus, the utilization of these assays to screen compounds for melanogenic activity is claimed in the present invention.

[2] = test system: Tyrosinase in normal human epidermal melanocytes (NHEM); test: Tyrosinase in NHEM (in situ, cellular, extracellular particulate, media); format: cell-based; conditions: for Tyrosinase 200 g Partic, relative to controls (in parentheses) / Tyrosinase 17300 g Partic, relative to controls (in parentheses) / Tyrosinase Cellular, relative to controls (in parentheses) / Tyrosinase In Situ, relative to controls (in parentheses) / Tyrosinase Media, relative to controls (in parentheses): pair of replicates
Method: Tyrosinase was measured in normal human epidermal melanocytes (NHEM) using procedures identical to those described for S91 cells (Example 6), […], 1600×g, or 17,300×g for analysis of tyrosinase activity in the extracellular exported melanosomal particulate fraction, and in the resultant supernatant media fraction. In some cases (Table 11), tyrosinase was also measured by an in situ assay wherein radiolabelled tyrosine was added directly to freshly replaced media of NHEM for a period of 24 hrs following a 5 day treatment period (Abdel-Malek, et al., 1992, J. Cell. Physiol. 150:416-425). […] Both 5 mM 5-NBene-2,2-DM and 25 mM 3,3-M-1,2-BD induced more tyrosinase in each of these assays and fractions than did 1,2-PG. IBMX (3-isobutyl-1-methyl-xanthine) provided as a positive control, induced as much tyrosinase as 5 mM 5-NBene-2,2-DM in the in situ assay, but less in cellular, extracellular particulate and media fractions (Table 11).

[3] = test system: normal human epidermal melanocytes (NHEM); test: Morphological differentiation of NHEM; format: cell-based; conditions: 5 mM
Method: Additionally, the length of dendrites was increased approximately 2-3-fold following treatment with 5 mM 5-NBene-2,2-DM, and there was an increase in the number of secretatory vesicles at the termini of dendrites (arrows in FIGS. 3A and 3B). […] Increased secretion of melanosomes resulting from treatment with 5 mM 5-NBene-2,2-DM was reflected in increased extracellular particulate tyrosinase activity (Example 7, Table 11).

[4] = test system: Cloudman S91 mouse melanoma cell line; test: Trypsinization detachment time of S91 cells; format: cell-based
Method: Following this microscopic examination, cells were detached from dishes by trypsin. The time required for detachment by trypsin was recorded as an additional indicator of the phenotypic effects of test compounds. For each treatment, a subsample of cells was counted to determine the effects of treatment compounds on cellular proliferation. The remainder of cells were used for determination of melanin content. Melanin was extracted from cells by vortexing for 15 min in 1N NaOH. Standards were prepared by dissolving melanin (Sigma) in 1 N NaOH (Eller, et al., 1996). Absorbance of standards and samples was measured at 475 nm. Melanin was expressed as pg melanin/cell.

[5] = test system: Cloudman S91 mouse melanoma cell line; test: Microscopic morphology (differentiation) of S91 cells; format: cell-based
Method: The Cloudman S91 mouse melanoma cell line was obtained from American Type Culture Collection (ATCC). Cells were cultured in Dulbecco's Modified Eagles Medium (DMEM) containing 10% calf serum, 2 mM L-glutamine, 10 U Penicillin/ml and 10 ug Streptomycin/ml according to a previously published protocol (Eller, et al., Proc. Natl. Acad. Sci. 93:1087-92. 1996). For testing propylene glycol and analogues for induction of melanogenesis, S91 cells were plated at 10^5 cells/35 mm dish in 10% calf serum. One day after plating, media was removed and replaced with media containing 2% calf serum and test compounds (Eller, et al., 1996). Cells were cultured for 6 days at 37° C. in 5% CO2 in a humidified incubator. Following this treatment period, cells were examined microscopically and the portion of dedifferentiated and differentiated cells was estimated. Previous studies have shown that dedifferentiated S91 cells have a rounded, spindly appearance while differentiated S91 cells have a flattened, cuboidal, multipolar and dendritic appearance (Orlow, et al., Exp. Cell Res. 191:209-218, 1990).

[6] = 5 day treatment, 300 mM 1,2-PG, 25 mM 3,3-M-1,2-BD, 5 mM 5-NBene-2,2-DM, 0.1 mM IBMX
[7] = 5 day treatment, concentrations as E130

OCC1(CO)CC2C=CC1C2 (stereo not shown) [5-NBene-2,2-DM, 5-norbornene-2,2-dimethanol]
nmoles NO/10^6 Cells ([1]; 1 mM): 11.6 ± 1.1 nmoles NO/10^6 Cells
uM NO ([1]; 1 mM): 4.80 ± 0.32 µM
nmoles NO/10^6 Cells ([1]; 2.5 mM): 21.4 ± 3.7 nmoles NO/10^6 Cells
uM NO ([1]; 2.5 mM): 5.46 ± 0.32 µM
nmoles NO/10^6 Cells ([1]; 5 mM): 72.9 ± 10.5 nmoles NO/10^6 Cells
uM NO ([1]; 5 mM): 6.36 ± 0.12 µM
Tyrosinase In Situ [2, 6]: 24.5 dpm/hr/10^3 Cells and 25.4 dpm/hr/10^3 Cells
Tyrosinase 200 g Partic [2, 7]: 6447 dpm/hr/10^3 Cells and 6291 dpm/hr/10^3 Cells
Tyrosinase Cellular [2, 7]: 13838 dpm/hr/10^3 Cells and 14716 dpm/hr/10^3 Cells
Tyrosinase Cellular ([2]; Black-Neonatal-NHEM, 1 mM): 10679 dpm/hr/10^3 cells
Tyrosinase Cellular relative to Control ([2]; Black-Neonatal-NHEM, 1 mM): 1.08 X
Tyrosinase In Situ ([2]; Black-Neonatal-NHEM, 1 mM): 13.9 dpm/hr/10^3 cells
Tyrosinase In Situ relative to Control ([2]; Black-Neonatal-NHEM, 1 mM): 1.11 X
Tyrosinase Media relative to Control ([2]; Black-Neonatal-NHEM, 1 mM): 2.41 X
Tyrosinase Media ([2]; Black-Neonatal-NHEM, 1 mM, media from 1 day treatment period): 26.8 dpm/hr/10^3 cells
Tyrosinase Cellular ([2]; Black-Neonatal-NHEM, 5 mM): 15398 dpm/hr/10^3 cells
Tyrosinase Cellular relative to Control ([2]; Black-Neonatal-NHEM, 5 mM): 1.56 X
Tyrosinase In Situ ([2]; Black-Neonatal-NHEM, 5 mM): 14.1 dpm/hr/10^3 cells
Tyrosinase In Situ relative to Control ([2]; Black-Neonatal-NHEM, 5 mM): 1.13 X
Tyrosinase Media relative to Control ([2]; Black-Neonatal-NHEM, 5 mM): 2.99 X
Tyrosinase Media ([2]; Black-Neonatal-NHEM, 5 mM, media from 1 day treatment period): 33.2 dpm/hr/10^3 cells
Tyrosinase 17300 g Partic ([2]; Post 200 X g, 5 day treatment, concentrations as E130): 493 dpm/hr/10^3 Cells and 473 dpm/hr/10^3 Cells
Tyrosinase Media ([2]; Post 17300 X g, 5 day treatment, concentrations as E130): 4164 dpm/hr/10^3 Cells and 4639 dpm/hr/10^3 Cells
Tyrosinase Cellular ([2]; White-Adult-NHEM, 1 mM): 12740 dpm/hr/10^3 cells
Tyrosinase Cellular relative to Control ([2]; White-Adult-NHEM, 1 mM): 0.91 X
Tyrosinase In Situ ([2]; White-Adult-NHEM, 1 mM): 6.27 dpm/hr/10^3 cells
Tyrosinase In Situ relative to Control ([2]; White-Adult-NHEM, 1 mM): 1.13 X
Tyrosinase Media relative to Control ([2]; White-Adult-NHEM, 1 mM): 0.82 X
Tyrosinase Media ([2]; White-Adult-NHEM, 1 mM, media from 1 day treatment period): 29.9 dpm/hr/10^3 cells
Tyrosinase Cellular ([2]; White-Adult-NHEM, 5 mM): 18467 dpm/hr/10^3 cells
Tyrosinase Cellular relative to Control ([2]; White-Adult-NHEM, 5 mM): 1.32 X
Tyrosinase In Situ ([2]; White-Adult-NHEM, 5 mM): 5.81 dpm/hr/10^3 cells
Tyrosinase In Situ relative to Control ([2]; White-Adult-NHEM, 5 mM): 1.04 X
Tyrosinase Media relative to Control ([2]; White-Adult-NHEM, 5 mM): 1.46 X
Tyrosinase Media ([2]; White-Adult-NHEM, 5 mM, media from 1 day treatment period): 53.1 dpm/hr/10^3 cells
Tyrosinase 200 g Partic, relative to controls (in parentheses) ([2]; concentrations as E130): (18.6X)
Tyrosinase 17300 g Partic, relative to controls (in parentheses) ([2]; concentrations as E130): (4.22X)
Tyrosinase Cellular, relative to controls (in parentheses) ([2]; concentrations as E130): (1.40X)
Tyrosinase In Situ, relative to controls (in parentheses) ([2]; concentrations as E130): (1.57X)
Tyrosinase Media, relative to controls (in parentheses) ([2]; concentrations as E130): (2.83X)
increase of length of dendrites of NHEM [3]: 2-3 fold
morphological changes of NHEM (in words) [3]: conversion of cells from a bipolar phenotype to a multidendritic phenotype

CC(O)CO (stereo not shown) [1,2-propanediol, 1,2-Propanediol (Propylene Glycol)]
Tyrosinase In Situ [2, 6]: 17.2 dpm/hr/10^3 Cells and 16.8 dpm/hr/10^3 Cells
Tyrosinase Cellular ([2]; 5 day treatment, concentrations as E130, listed as 1,2-PG): 10875 dpm/hr/10^3 Cells and 10247 dpm/hr/10^3 Cells
Tyrosinase Media ([2]; Post 17300 X g, 5 day treatment, concentrations as E130, listed as 1,2-PG): 2123 dpm/hr/10^3 Cells and 1864 dpm/hr/10^3 Cells
Tyrosinase 200 g Partic, relative to controls (in parentheses) ([2]; concentrations as E130): (1.98X)
Tyrosinase 17300 g Partic, relative to controls (in parentheses) ([2]; concentrations as E130): (1.50X)
Tyrosinase Cellular, relative to controls (in parentheses) ([2]; concentrations as E130): (1.03) X
Tyrosinase In Situ, relative to controls (in parentheses) ([2]; concentrations as E130): (1.07X)
Tyrosinase Media, relative to controls (in parentheses) ([2]; concentrations as E130): (1.28X)
Trypsinization Detachment Time ([4]; 50 mM): 3 min
Trypsinization Detachment Time ([4]; 150 mM): 6 min
Trypsinization Detachment Time ([4]; 1% (136 mM)): ≦6 min
Trypsinization Detachment Time ([4]; 2% (272 mM)): ≦9 min
Trypsinization Detachment Time ([4]; 3% (408 mM)): ≦12 min
Trypsinization Detachment Time ([4]; 4% (544 mM)): ≦15 min
Trypsinization Detachment Time ([4]; 5% (680 mM)): ≦15 min
Morphology Flattened Cuboidal ([5]; 50 mM): 25%
Morphology Rounded Spindly ([5]; 50 mM): 75%
Morphology Flattened Cuboidal ([5]; 150 mM): 50%
Morphology Rounded Spindly ([5]; 150 mM): 50%
Morphology Flattened Cuboidal ([5]; 1% (136 mM)): 10%
Morphology Rounded Spindly ([5]; 1% (136 mM)): 90%
Morphology Flattened Cuboidal ([5]; 2% (272 mM)): 30%
Morphology Rounded Spindly ([5]; 2% (272 mM)): 70%
Morphology Flattened Cuboidal ([5]; 3% (408 mM)): 60%
Morphology Rounded Spindly ([5]; 3% (408 mM)): 40%
Morphology Flattened Cuboidal ([5]; 4% (544 mM)): 85%
Morphology Rounded Spindly ([5]; 4% (544 mM)): 15%
Morphology Flattened Cuboidal ([5]; 5% (680 mM)): 100%

— patent US7250157B2, “Dermatological compositions and methods” (Applied Genetics Incorporated Dermatics, priority 1996, dated 2007)
